Laboratory results reported in a melting point compilation (Tetko et al.; mined from patent text by program, amines drawn as free bases though some values may be those of a salt).

Row | melting point [°C] | SMILES
1 | 287 to 289 | O=C(Oc1ccc(Cl)cn1)c1cc2cc([N+](=O)[O-])ccc2oc1=O
2 | 211 to 213 | COc1cn(-c2cc(F)c(Br)cc2F)nc(-c2ccnn2-c2ccccc2)c1=O
3 | 61 to 62 | CC(=O)c1cccc(-c2ncc(OCCCN(C)C)cn2)c1
4 | 108 to 109 | CCOC(=O)c1ccc(NCc2ccc(Cl)s2)cc1
5 | 66.1 to 66.5 | CCCCCCCCc1cnc(-c2ccc(C#N)cc2)nc1
6 | 89.5 to 90.5 | COC(=O)CC(NCc1ccccc1)=C(C(=O)OC)C(=O)C(F)(F)F
7 | 170 to 171 | Cc1cc(C)c(-n2ccc3c(Cl)nn(C)c(=O)c32)c(C)c1
8 | 159 | CC(=NNc1ccccc1)c1ccc(O)cc1O
9 | 195 to 197 | Cc1cc(C)n(C)c1C(=O)c1cccnc1
10 | > 260 | Cn1cncc1C(O)(c1ccc(Cl)cc1)c1ccc2c(c1)C(c1cccc(Cl)c1)n1nnnc1N2 (configuration not stated)
11 | 143 to 145 | N#Cc1cccc2c(-c3ccccc3)coc12
12 | 111 to 113 | CCCCCN1C(=O)C2(COc3cc4c(cc32)OCCO4)c2ccccc21 (configuration not stated)
13 | 90 to 94 | CCCCN1C(=O)c2cnc(-c3ccccc3)nc2N(C(=O)CN2CCN(C)CC2)c2ccccc21
14 | 120 | Cn1c(=O)cc(-c2cccc(Cl)c2)c2cc(C(C)(c3ccc(Cl)cc3)n3ccnc3)ccc21 (configuration not stated)
15 | 206 to 210 | Cc1cc(S(N)(=O)=O)ccc1N1CN(c2ccccc2)CC1=O
16 | 85.6 | CC(=O)N1c2ccc(-c3ccc(C=O)cc3)cc2C(NC=O)CC1C (configuration not stated)
17 | 152 to 153 | O=C(O)CCc1cn(Cc2ccc3cc(OCc4ccccc4F)ccc3c2)nc1-c1ccccc1
18 | 156 to 162 | CC(=O)N1CCCc2c(c3ccc(-n4ccc(-c5ccc(C(F)(F)F)nc5)cc4=O)cc3n2C)C1
19 | 63 | CCOC(=O)C(C)Oc1ccc(OCc2ccccc2)cc1F (configuration not stated)
20 | 185 to 186 | N#Cc1cc(C(=O)c2ccccc2)ccc1O
21 | 132 to 133 | CC(C)N(CC(O)(Cn1cncn1)c1ccc(Cl)cc1Cl)S(C)(=O)=O (configuration not stated)
22 | 163 to 165 | Cc1ccc(-c2nc3cc([N+](=O)[O-])ccc3o2)s1
23 | 185 to 186 | Nc1cc(=O)n(Cc2ccc(-c3ccccc3)cc2)[nH]1
24 | 80 to 85 | CCc1ccc2c3c(c(=O)oc2c1)CNCC3
25 | 57.5 to 58 | COC1CN(c2ccc([N+](=O)[O-])cc2F)C1

Row | melting point [°C] | SMILES
26 | 164 to 167 | Cc1c(O)cc2c(c1C)NCC2
27 | > 250 | N[C@@]1(C(=O)O)C[C@H](NC(=O)Nc2cccc(F)c2)[C@H]2[C@H](C(=O)O)[C@H]21 (relative stereo)
28 | 76 to 77 | CCC(C(=O)c1ccc(N(CCN(CC)CC)S(C)(=O)=O)cc1)c1ccccc1 (configuration not stated)
29 | 118 to 119 | CCCCCCCCCCCCCCCCc1ccc(S(=O)(=O)Nc2nncs2)cc1
30 | 135 to 136 | O=C1COCCCOC(=O)COCCCO1
31 | 130 to 132 | CCc1ccc(C(=NO)c2ccc(F)cc2)c(O)c1
32 | 157 to 158 | O=C(Cc1ccccc1)NC1SCCN1Cc1ccc(Cl)nc1 (configuration not stated)
33 | 190 to 191 | CCc1nc2cnc3cc(OCC(=O)N4CCOCC4)ccc3c2n1CCOc1ccccc1
34 | 195 | O=C(Nc1ccc(Oc2ccc(Cl)cc2)cc1)Nc1nonc1-c1ccccc1
35 | 192 to 194 | Cc1ccccc1Nc1nc(Cl)nc2ccccc12
36 | 164 to 165 | CC1(C)OC(=O)Nc2ccc(-c3ccccc3F)cc21
37 | 95 to 96 | Cc1c(CO)sc2cc(Br)ccc12
38 | 114 to 115 | CSc1ncc(F)c(N)n1
39 | 174 to 175 | O=C(O)CC1Cc2ccc(O)cc2OC1=O (configuration not stated)
40 | 167 to 168 | Cc1ccn2c(CN(C)C)c(-c3ccc4sc(=O)n(C)c4c3)nc2c1
41 | 77 to 80 | CCCC(=Cc1ccccc1)CN1CCc2nc(N)sc2CC1
42 | 195 to 197 | O=C(O)Cc1ccc(OCc2ccc(F)cc2C(=O)O)cc1
43 | 75 | CCC[C@H]1CC[C@H](CCCOc2ccc(C(=O)O[C@H](c3ccccc3)[C@H](OC(=O)c3ccc(OCCC[C@H]4CC[C@H](CCC)CC4)cc3)c3ccccc3)cc2)CC1
44 | 165 to 166 | COc1ccc(CNC(=O)c2cccnc2N)cc1
45 | 70 to 71 | CC1=Cc2ccsc2Sc2ccccc21
46 | 109 to 110 | CCOC(=O)CC1c2ccccc2C(=O)N1c1ccccc1 (configuration not stated)
47 | 166 to 167 | Cc1cc(Cl)ccc1OCC(=O)N1Cc2cccn2Cc2ccccc21
48 | 57 to 58 | CCNC1=NN(c2ccc(Cl)cc2)C(C)C1 (configuration not stated)
49 | 76 to 79 | Nc1ccccc1C(O)C1CC1 (configuration not stated)
50 | 92 to 93.5 | Cc1cccc(C)c1CCCN1C(=O)c2ccccc2C1=O

Row | melting point [°C] | SMILES
51 | 149 to 150 | Cc1ccc(NC(=O)c2cccc(N3CCOCC3)c2)cc1[N+](=O)[O-]
52 | 168 to 170 | Cc1nnc2cccc(-c3ccccn3)n12
53 | 115 to 117 | CS(=O)(=O)c1ccc(-c2nnc(Oc3ccc(F)cc3F)cc2-c2ccc(Cl)cc2)cc1
54 | 113 to 114 | COc1cc(O)c(C(=O)CCc2ccc3occc3c2)cc1C(O)C1OC(C(=O)C(C)C(=O)O)C(O)C(O)C1O (configuration not stated)
55 | 61 to 64 | Cc1nc(OCC(F)(F)F)c([N+](=O)[O-])c(N2CCC(c3ccc(F)cc3)CC2)n1
56 | 129 | O=C(CCCCCN1CCN(c2cccc(C(F)(F)F)c2)CC1)N1Cc2ccc(C3=NCCO3)cc2C1
57 | 71 to 72 | C=CCN1CCCN(c2cc(Cl)ccc2C)C1=S
58 | 95 to 96 | O=C(CCC(CCC(=O)OCc1ccccc1)(CCC(=O)OCc1ccccc1)[N+](=O)[O-])OCc1ccccc1
59 | 159 to 160 | Cc1ccc2c(c1)/C(=N\NC(=O)NCc1ccccc1)C(=O)N2CCN(C(C)C)C(C)C
60 | 270 to 272 | O=C1CCC(c2ccc(-n3ccc(=O)cc3)cc2)=NN1
61 | 203 | Cc1ccc(-c2cc(C(F)(F)F)nn2-c2ccc(S(=O)(=O)NO)cc2)cc1
62 | 167 | CCCCc1nc2cc[nH]c(=O)c2n1Cc1ccc(-c2ccccc2-c2nnn[nH]2)cc1
63 | 65 to 68 | COc1ccc(OCC(O)CCCl)cc1 (configuration not stated)
64 | 158 to 162 | CNS(=O)(=O)CC(=O)C=C(C)N
65 | 310 | O=C(O)c1cnc2cc(C(F)(F)F)ccc2c1Cl
66 | 58 to 59 | FC(F)(F)c1cc(N(Cc2ccsc2)Cc2ccccn2)cc(C(F)(F)F)c1Br
67 | 139 to 140 | COc1ccc(C)cc1NC(=O)Nc1ccc(N2CCN(C(=O)Nc3c(CO)cccc3C(F)(F)F)CC2)cc1
68 | 137 to 138 | O=C(Nc1noc2ccccc12)N1CCN(C(=O)OCc2ccccc2)CC1
69 | 232 to 233 | CC(C)CCCC(C)C1CCC2(C#N)C3C=CC4C(C)(C)C(OC(=O)c5ccccc5)CCC4(C)C3CCC12C (configuration not stated)
70 | 186 to 189 | COC(=O)C(C#N)C(=O)Nc1ccc(C(F)(F)F)cc1 (configuration not stated)
71 | 124 to 126 | O=[N+]([O-])c1ccc(C(Cl)=NNc2ccccc2)c(Cl)c1
72 | 66.4 | O=[N+]([O-])c1ccc2c(c1)CCC(COC1CCCCO1)O2 (configuration not stated)
73 | 119 to 121 | Fc1ccc(-n2ccc3cc(-c4ccccn4)ccc32)cc1
74 | 87 to 89 | CC1(c2ccc3c(c2)CC(=O)N3CC(F)(F)F)OCCO1
75 | > 295 | O=C(O)c1ccc(N2Cc3ccccc3C2=O)cc1

Row | melting point [°C] | SMILES
76 | 192 to 193 | CNc1nc(-c2ccccc2)c(-c2nc3ccccc3c(=O)n2-c2ccc(C)cc2)s1
77 | 194 to 196 | COc1cc(OC)c2c3c(oc2c1)CC(C(=O)O)CC3 (configuration not stated)
78 | 84 to 86 | Cc1ccccc1CC(=NC#N)NC(NC(=O)Cc1cccnc1)C(C)(C)C (configuration not stated)
79 | 93 to 95 | Cc1c(C)c2c(c(C)c1NCc1ccc(F)cc1)C(c1ccccc1)C(C)(C)O2 (configuration not stated)
80 | 128 to 130 | NC(=NO)c1cccc2ccccc12
81 | 156 to 157 | CC(NC(=O)NO)c1ccc2ccccc2c1 (configuration not stated)
82 | 160 | CCCCCC12CCC(C(=O)O)(CC1)CC2
83 | 194 to 195 | O=C(O)c1cccc2cc(Oc3cc(Cl)ncn3)ccc12
84 | 47 to 49 | CC(C)(C)c1cc(S)cc(C(C)(C)C)c1
85 | 157 to 159 | Cc1nsc(SCC2=C(C(=O)OC(c3ccccc3)c3ccccc3)N3C(=O)C(N)(N)C3SC2)n1 (configuration not stated)
86 | > 260 | O=C(O)c1cc2c(-c3ccccc3)n[nH]c2s1
87 | 315 | CC(C)Oc1nccc2c1C(c1ccccc1C(F)(F)F)c1c(cc[nH]c1=O)N2 (configuration not stated)
88 | 174 to 175 | CS(=O)(=O)c1csc(CC(=O)C(=O)c2ccc(F)cc2)c1
89 | 114 to 115 | NCC(=O)NCc1ccc(F)cc1
90 | 235 to 236 | Cc1nc2cc(S(=O)(=O)n3c(CCC(=O)O)cc4cc(C(F)(F)F)ccc43)ccc2s1
91 | 197 to 199 | CN1C2CCCC1CC(NC(=O)c1cccc3oc(-c4ccc(F)cc4)nc13)C2 (configuration not stated)
92 | 43 to 45 | CCOC(=O)c1ccc(Br)c(OCC)c1N(CC)S(C)(=O)=O
93 | 195 to 196 | S=C=Nc1ccc(Nc2ccncc2)cc1
94 | 180 to 184 | COC(=O)N=CNNc1cc(SCC(C)C)ccc1NC(C)=O
95 | > 200 | O=c1[nH]c(N2CCC(N3CCCCC3)CC2)cc2ccccc12
96 | 174 to 176 | CC(C)(C)OC(=O)NC(Cc1ccccc1)C(O)CNCC(O)C(Cc1ccccc1)NC(=O)C1c2ccccc2CN1C=O (configuration not stated)
97 | 56 to 58 | CCOC(=O)C1(C)C=C(Cl)C2=NCN(C)C2=N1 (configuration not stated)

Row | SMILES | melting point [°C]
98 | Nc1noc(C23CCCN(CC2)C3)n1 (configuration not stated) | 197 to 199
99 | CC(C)CCN1C(=O)C(NC(=O)Oc2cccc(N(C)C)c2)C(=O)N(c2ccccc2)c2cc(Cl)c(Cl)cc21 (configuration not stated) | 163 to 164
100 | CC12CCC3C(CCC4=CC(=O)CCC43C=O)C1CCC2=O (configuration not stated) | 126 to 129
101 | CCN(CC)C(=O)COC(=O)CCNC(=O)[C@H](Cc1ccc(-c2ccccc2)cc1)NCP(=O)(Oc1ccccc1)Oc1ccccc1 | 68 to 74
102 | C1=C(c2c[nH]c3ccccc23)CCN(CC2COc3ccc4c(c3O2)OCCC4)C1 (configuration not stated) | 140
